{
  "source": "patent US20170152226A1",
  "about": "“FUNCTIONALISED AND SUBSTITUTED INDOLES AS ANTI-CANCER AGENTS” (Novogen Ltd., priority 2014, published 2017)",
  "key": {"A2058": {"tested_on": "A2058", "assay": "Anti-proliferative activity, MTS viability assay", "format": "cell-based", "settings": "Homo sapiens, 72 hours exposure, read-out: IC50 Melanoma A2058", "protocol": "(§1) The anti-proliferative activity of compound 3507 was further evaluated in cell lines representative of melanoma, prostate cancer, leukaemia and neuroblastoma. Cell viability after 72 hours exposure to increasing concentrations of compound 3507 was measured using an MTS viability assay. Cell viability was normalized to control (vehicle alone) and dose-response curves, and relative inhibitory concentration (IC50) values were determined using GraphPad Prism 6."}, "BL": {"tested_on": "BL", "assay": "Anti-proliferative activity, MTS viability assay", "format": "cell-based", "settings": "72 hours exposure, read-out: IC50 Melanoma BL", "protocol": "as §1"}, "BPH-1": {"tested_on": "BPH-1", "assay": "Anti-proliferative activity, MTS viability assay", "format": "cell-based", "settings": "Homo sapiens, 72 hours exposure, read-out: IC50 Prostate BPH-1", "protocol": "as §1"}, "CHLA-20": {"tested_on": "CHLA-20", "assay": "Anti-proliferative activity, MTS viability assay", "format": "cell-based", "settings": "72 hours exposure, read-out: IC50 Neuroblastoma CHLA-20", "protocol": "as §1"}, "CHLA-90": {"tested_on": "CHLA-90", "assay": "Anti-proliferative activity, MTS viability assay", "format": "cell-based", "settings": "72 hours exposure, read-out: IC50 Neuroblastoma CHLA-90", "protocol": "as §1"}, "CHP-134": {"tested_on": "CHP-134", "assay": "Anti-proliferative activity, MTS viability assay", "format": "cell-based", "settings": "Homo sapiens, 72 hours exposure, read-out: IC50 Neuroblastoma CHP-134", "protocol": "as §1"}, "D20": {"tested_on": "D20", "assay": "Anti-proliferative activity, MTS viability assay", "format": "cell-based", "settings": "72 hours exposure, read-out: IC50 Melanoma D20", "protocol": "as §1"}, "HL-60": {"tested_on": "HL-60", "assay": "Anti-proliferative activity, MTS viability assay", "format": "cell-based", "settings": "Homo sapiens, 72 hours exposure, read-out: IC50 Leukemia HL-60", "protocol": "as §1"}, "K562": {"tested_on": "K562", "assay": "Anti-proliferative activity, MTS viability assay", "format": "cell-based", "settings": "Homo sapiens, 72 hours exposure, read-out: IC50 Leukemia K562", "protocol": "as §1"}, "LNCaP": {"tested_on": "LNCaP", "assay": "Anti-proliferative activity, MTS viability assay", "format": "cell-based", "settings": "Homo sapiens, 72 hours exposure, read-out: IC50 Prostate LNCaP", "protocol": "as §1"}, "MM329": {"tested_on": "MM329", "assay": "Anti-proliferative activity, MTS viability assay", "format": "cell-based", "settings": "72 hours exposure, read-out: IC50 Melanoma MM329", "protocol": "as §1"}, "MM415": {"tested_on": "MM415", "assay": "Anti-proliferative activity, MTS viability assay", "format": "cell-based", "settings": "72 hours exposure, read-out: IC50 Melanoma MM415", "protocol": "as §1"}, "MM96L": {"tested_on": "MM96L", "assay": "Anti-proliferative activity, MTS viability assay", "format": "cell-based", "settings": "Homo sapiens, 72 hours exposure, read-out: IC50 Melanoma MM96L", "protocol": "as §1"}, "P4E6": {"tested_on": "P4E6", "assay": "Anti-proliferative activity, MTS viability assay", "format": "cell-based", "settings": "72 hours exposure, read-out: IC50 Prostate P4E6", "protocol": "as §1"}, "SK-N-Be(2)": {"tested_on": "SK-N-Be(2)", "assay": "Anti-proliferative activity, MTS viability assay", "format": "cell-based", "settings": "Homo sapiens, SKNBE2, 72 hours exposure, read-out: IC50 Neuroblastoma SK-N-Be(2)", "protocol": "as §1"}, "SKMEL13": {"tested_on": "SKMEL13", "assay": "Anti-proliferative activity, MTS viability assay", "format": "cell-based", "settings": "72 hours exposure, read-out: IC50 Melanoma SKMEL13", "protocol": "as §1"}, "THP-1": {"tested_on": "THP-1", "assay": "Anti-proliferative activity, MTS viability assay", "format": "cell-based", "settings": "Homo sapiens, 72 hours exposure, read-out: IC50 Leukemia THP-1", "protocol": "as §1"}, "CHLA20 tumours": {"tested_on": "CHLA20 tumours", "assay": "CHLA20 neuroblastoma xenograft model", "format": "in vivo", "settings": "150 mg/kg IP daily, 18 days", "protocol": "FIG. 4: Compound 3507/30% w/v Dexolve-7 was administered IP daily at 150 mg/kg for 18 days in a flank xenograft model of neuroblastoma (CHLA-20). Tumour volume was measured every 2-3 days.\nThe in vivo efficacy of compound 3507 was evaluated in the CHLA20 neuroblastoma xenograft model. CHLA20 tumours were established in athymic nude mice by injecting 1.0×10^7 tumour cells subcutaneously in the right flank. Dosing of animals commenced when tumour volume reached ˜200-400 mm^3. Animals (˜n=5+) were randomly divided into treatment and control groups. Compound 3507 was dosed daily by intraperotineal (IP) injection at 150 mg/kg in 30% w/v Captisol (a cyclodextrin-containing formulation)."}, "A375 tumours": {"tested_on": "A375 tumours", "assay": "Human melanoma (A375) xenograft model", "format": "in vivo", "settings": "60 mg/kg intravenously twice a week", "protocol": "FIG. 5: Compound 3507/30% w/v Dexolve-7 was administered IV 2×/week at 60 mg/kg for 14 days in a flank xenograft model of melanoma (A375). Tumour volume was measured every 2-3 days. ** p<0.01.\nThe in vivo efficacy of 3507 was also evaluated in a human melanoma (A375) xenograft model. A375 tumours were established in female Foxn-1 nu/nu athymic mice by injecting approximately five million cells subcutaneously in the right flank region of the animal. When the tumours reached 130-150 mm^3 the animals were randomized into four groups, (n=8 or 12 animals/group) so that the average tumour volume of all the groups was same. Group 1 received vehicle (30% w/v Dexolve-7 in sterile water) twice a week intravenously, and Group 2 was dosed with 3507/Dexolve-7 at 60 mg/kg, twice a week intravenously. Tumours and body weight was measured two to three times in a week. In addition, throughout the study period mice were monitored daily for clinical condition."}},
  "note": "pIC50: −log10 of the molar value.",
  "data": [
    {"smiles": "Cc1c(C)n(CCCN2CCN(C)CC2)c2ccc(Oc3cccc(C(=O)N4CCN(CCc5ccc(F)cc5)CC4)c3)cc12", "note": "[Compound 3507, (3-((2,3-dimethyl-1-(3-(4-methylpiperazin-1-yl)propyl)-1H-indol-5-yl)oxy)phenyl)(4-(4-fluorophenethyl)piperazin-1-yl)methanone]", "values": [
      {"measurement": "pIC50", "setting": "A2058", "value": 5.39},
      {"measurement": "pIC50", "setting": "BL", "value": 5.23},
      {"measurement": "pIC50", "setting": "BPH-1", "value": 6.14},
      {"measurement": "pIC50", "setting": "CHLA-20", "value": 5.16},
      {"measurement": "pIC50", "setting": "CHLA-90", "value": 5.37},
      {"measurement": "pIC50", "setting": "CHP-134", "value": 5.14},
      {"measurement": "pIC50", "setting": "D20", "value": 5.30},
      {"measurement": "pIC50", "setting": "HL-60", "value": 5.94},
      {"measurement": "pIC50", "setting": "K562", "value": 6.02},
      {"measurement": "pIC50", "setting": "LNCaP", "value": 6.23},
      {"measurement": "pIC50", "setting": "MM329", "value": 5.42},
      {"measurement": "pIC50", "setting": "MM415", "value": 5.33},
      {"measurement": "pIC50", "setting": "MM96L", "value": 5.49},
      {"measurement": "pIC50", "setting": "P4E6", "value": 6.06},
      {"measurement": "pIC50", "setting": "SK-N-Be(2)", "value": 5.26},
      {"measurement": "pIC50", "setting": "SKMEL13", "value": 5.43},
      {"measurement": "pIC50", "setting": "THP-1", "value": 6.10},
      {"measurement": "tolerability", "setting": "CHLA20 tumours", "value": "well tolerated"},
      {"measurement": "tolerability", "setting": "A375 tumours", "value": "well tolerated"},
      {"measurement": "reduction of melanoma tumour growth compared to vehicle control", "setting": "A375 tumours; after 14 days treatment", "value": "~60", "unit": "%"},
      {"measurement": "body weights", "setting": "A375 tumours; throughout the study period", "value": "comparable to the control group"}
    ]}
  ]
}
